These results are taken from patent publication US9822114B2, “Tricyclic oxazolidinone antibiotic compounds” (Idorsia Pharmaceuticals Ltd, priority 2008, dated 2017).

This experiment relates to M. catarrhalis A894. Kind of experiment: Minimal inhibitory concentration (MIC), microdilution method in cation-adjusted Mueller-Hinton Broth (CLSI M7-A7). The conditions noted are these: strain A894. Type of experiment: cell-based. Here is the method: Minimal inhibitory concentrations (MICs; mg/1) were determined in cation-adjusted Mueller-Hinton Broth by a microdilution method following the description given in “Methods for Dilution Antimicrobial Susceptibility Tests for Bacteria that Grow Aerobically”, Approved standard, 7th ed., Clinical and Laboratory Standards Institute (CLSI) Document M7-A7, Wayne, Pa., USA, 2006.
For orientation: Broth dilution looks for growth in wells or tubes with falling amounts of substance.
Take “(1R,2R)-2-hydroxymethyl-1-{3-[(R)-2-oxo-3-(3-oxo-3,4-dihydro-2H-benzo[1,4]thiazin-6-yl)-oxazolidin-5-yl]-propylamino}-1,2-dihydro-pyrrolo[3,2,1-ij]quinolin-4-one and (1S,2S)-2-hydroxymethyl-1-{3-[(R)-2-oxo-3-(3-oxo-3,4-dihydro-2H-benzo[1,4]thiazin-6-yl)-oxazolidin-5-yl]-propylamino}-1,2-dihydro-pyrrolo[3,2,1-ij]quinolin-4-one [Example 163]”: the “MIC for M. catarrhalis A894” value was found to be 0.031 µg/mL.

For “(1R,2R)-2-hydroxymethyl-1-{3-[(S)-2-oxo-3-(3-oxo-3,4-dihydro-2H-benzo[1,4]thiazin-6-yl)-oxazolidin-5-yl]-propylamino}-1,2-dihydro-pyrrolo[3,2,1-ij]quinolin-4-one and (1S,2S)-2-hydroxymethyl-1-{3-[(S)-2-oxo-3-(3-oxo-3,4-dihydro-2H-benzo[1,4]thiazin-6-yl)-oxazolidin-5-yl]-propylamino}-1,2-dihydro-pyrrolo[3,2,1-ij]quinolin-4-one [Example 164]”, the “MIC for M. catarrhalis A894” value turned out to be 0.031 µg/mL.

For the substance “(1R,2R)-2-methoxymethyl-1-{3-[(R)-2-oxo-3-(3-oxo-3,4-dihydro-2H-benzo[1,4]thiazin-6-yl)-oxazolidin-5-yl]-propylamino}-1,2-dihydro-pyrrolo[3,2,1-ij]quinolin-4-one and (1S,2S)-2-methoxymethyl-1-{3-[(R)-2-oxo-3-(3-oxo-3,4-dihydro-2H-benzo[1,4]thiazin-6-yl)-oxazolidin-5-yl]-propylamino}-1,2-dihydro-pyrrolo[3,2,1-ij]quinolin-4-one [Example 165]”, the “MIC for M. catarrhalis A894” value was 0.125 µg/mL.

As to “(1R,2R)-4-oxo-1-{3-[(R)-2-oxo-3-(3-oxo-3,4-dihydro-2H-benzo[1,4]thiazin-6-yl)-oxazolidin-5-yl]-propylamino}-1,2-dihydro-4H-pyrrolo[3,2,1-ij]quinoline-2-carboxylic acid methyl ester and (1S,2S)-4-oxo-1-{3-[(R)-2-oxo-3-(3-oxo-3,4-dihydro-2H-benzo[1,4]thiazin-6-yl)-oxazolidin-5-yl]-propylamino}-1,2-dihydro-4H-pyrrolo[3,2,1-ij]quinoline-2-carboxylic acid methyl ester [Example 161]”, the “MIC for M. catarrhalis A894” value amounted to 0.125 µg/mL.

Take “(1R,2R)-4-oxo-1-{3-[(S)-2-oxo-3-(3-oxo-3,4-dihydro-2H-benzo[1,4]thiazin-6-yl)-oxazolidin-5-yl]-propylamino}-1,2-dihydro-4H-pyrrolo[3,2,1-ij]quinoline-2-carboxylic acid methyl ester and (1S,2S)-4-oxo-1-{3-[(S)-2-oxo-3-(3-oxo-3,4-dihydro-2H-benzo[1,4]thiazin-6-yl)-oxazolidin-5-yl]-propylamino}-1,2-dihydro-4H-pyrrolo[3,2,1-ij]quinoline-2-carboxylic acid methyl ester [Example 162]”: the “MIC for M. catarrhalis A894” value came to 0.25 µg/mL.

Regarding “(1R,2S)-2-methyl-1-{3-[(R)-2-oxo-3-(3-oxo-3,4-dihydro-2H-benzo[1,4]thiazin-6-yl)-oxazolidin-5-yl]-propylamino}-1,2-dihydro-pyrrolo[3,2,1-ij]quinolin-4-one and (1S,2R)-2-methyl-1-{3-[(R)-2-oxo-3-(3-oxo-3,4-dihydro-2H-benzo[1,4]thiazin-6-yl)-oxazolidin-5-yl]-propylamino}-1,2-dihydro-pyrrolo[3,2,1-ij]quinolin-4-one [Example 166]”, the “MIC for M. catarrhalis A894” value is recorded as “≦0.031 mg/l”.

For the substance “(1R,2S)-2-methyl-1-{3-[(R)-2-oxo-3-(3-oxo-3,4-dihydro-2H-pyrido[3,2-b][1,4]thiazin-6-yl)-oxazolidin-5-yl]-propylamino}-1,2-dihydro-pyrrolo[3,2,1-ij]quinolin-4-one and (1S,2R)-2-methyl-1-{3-[(R)-2-oxo-3-(3-oxo-3,4-dihydro-2H-pyrido[3,2-b][1,4]thiazin-6-yl)-oxazolidin-5-yl]-propylamino}-1,2-dihydro-pyrrolo[3,2,1-ij]quinolin-4-one [Example 168]”, the “MIC for M. catarrhalis A894” value is given as “≦0.031 mg/l”.

Consider “(1R,2S)-2-methyl-1-{3-[(S)-2-oxo-3-(3-oxo-3,4-dihydro-2H-benzo[1,4]thiazin-6-yl)-oxazolidin-5-yl]-propylamino}-1,2-dihydro-pyrrolo[3,2,1-ij]quinolin-4-one and (1S,2R)-2-methyl-1-{3-[(S)-2-oxo-3-(3-oxo-3,4-dihydro-2H-benzo[1,4]thiazin-6-yl)-oxazolidin-5-yl]-propylamino}-1,2-dihydro-pyrrolo[3,2,1-ij]quinolin-4-one [Example 167]”, for which the “MIC for M. catarrhalis A894” value is listed as “≦0.031 mg/l”.

As to “(1R,2S)-2-methyl-1-{3-[(S)-2-oxo-3-(3-oxo-3,4-dihydro-2H-pyrido[3,2-b][1,4]thiazin-6-yl)-oxazolidin-5-yl]-propylamino}-1,2-dihydro-pyrrolo[3,2,1-ij]quinolin-4-one and (1S,2R)-2-methyl-1-{3-[(S)-2-oxo-3-(3-oxo-3,4-dihydro-2H-pyrido[3,2-b][1,4]thiazin-6-yl)-oxazolidin-5-yl]-propylamino}-1,2-dihydro-pyrrolo[3,2,1-ij]quinolin-4-one [Example 169]”, the “MIC for M. catarrhalis A894” value was “≦0.031 mg/l”.

In the case of “(RS)-1-({[(R)-3-(4-ethoxy-phenyl)-2-oxo-oxazolidin-5-ylmethyl]-amino}-methyl)-9-fluoro-1,2-dihydro-pyrrolo[3,2,1-ij]quinolin-4-one [Example 36]”, the “MIC for M. catarrhalis A894” value was found to be 8 µg/mL.

As to “N—((RS)-9-fluoro-4-oxo-1,2-dihydro-4H-pyrrolo[3,2,1-ij]quinolin-1-yl)-N-{3-[(R)-2-oxo-3-(3-oxo-3,4-dihydro-2H-benzo[1,4]thiazin-6-yl)-oxazolidin-5-yl]-propyl}-acetamide and (RS)-1-{3-[(R)-3-(4-acetyl-3-oxo-3,4-dihydro-2H-benzo[1,4]thiazin-6-yl)-2-oxo-oxazolidin-5-yl]-propylamino}-9-fluoro-1,2-dihydro-pyrrolo[3,2,1-ij]quinolin-4-one [Example 172]”, the “MIC for M. catarrhalis A894” value amounted to 0.25 µg/mL.
